Source: PubChem BioAssay (NCI)
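Cells were grown in 96-well plates and exposed to each compound for 48 hours at five concentrations; endpoints were interpolated linearly between bracketing concentrations, or set to the highest concentration if not reached. The concentration for full growth arrest is given as TGI.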 Where a SMILES comes first, the peptide text is derived from it. [ ]: non-standard residue; d: D form. The star is where a group is joined. Cbz = O=C(OCc1ccccc1)*; Boc = CC(C)(C)OC(=O)*; Aib = CC(C)(N)C(=O)O; OBn = c1ccc(CO*)cc1; OtBu = CC(C)(C)O*; βAla = NCCC(=O)O

Columns and labels:
Experiment in all cases: NCI anticancer screen, dose series, 48 h
786-0 renal = test system: 786-0 renal
ACHN renal = test system: ACHN renal
HT29 colon = test system: HT29 colon
M14 melanoma = test system: M14 melanoma
MALME-3M melanoma = test system: MALME-3M melanoma
MCF7 breast = test system: MCF7 breast
OVCAR-3 ovarian = test system: OVCAR-3 ovarian
TK-10 renal = test system: TK-10 renal
U251 CNS = test system: U251 CNS
UACC-62 melanoma = test system: UACC-62 melanoma

Compound | TGI (786-0 renal) [µM] | TGI (ACHN renal) [µM] | TGI (HT29 colon) [µM] | TGI (M14 melanoma) [µM] | TGI (MALME-3M melanoma) [µM] | TGI (MCF7 breast) [µM] | TGI (OVCAR-3 ovarian) [µM] | TGI (TK-10 renal) [µM] | TGI (U251 CNS) [µM] | TGI (UACC-62 melanoma) [µM]
CC(C)(C)OC(=O)CC(NC(=O)OC(C)(C)C)C(=O)NC(CCCCNC(=O)OCc1ccccc1)C(=O)NC(C)(C)C(=O)NCCC(=O)OCc1ccccc1 (stereo not given) (Boc-D(OtBu)K(Cbz)[Aib][βAla]-OBn; configuration not given here) | > 100 | > 100 | > 100 | > 100 | > 100 | > 100 | > 100 | > 100 | > 100 | > 100
O=C(Nc1cccc(-c2cn3ccccc3n2)c1)c1ccncc1 | > 100 | > 100 | > 100 | > 100 | > 100 | > 100 | > 100 | > 100 | > 100 | 42.2
COc1cc(C2C3=C(COC3=O)OC(C)(C)Oc3cc4c(cc32)OCO4)cc(OC)c1OC (stereo not given) | – | > 100 | 0.662 | – | > 100 | > 100 | – | > 100 | > 100 | > 20
CCOC(=O)c1c(N2CCOCC2)[nH]c(=O)c(C(c2ccc(OC)cc2)c2c(O)c(C(=O)OCC)c(N3CCOCC3)[nH]c2=O)c1O | > 100 | > 100 | > 100 | > 100 | > 100 | > 100 | > 100 | > 100 | > 100 | > 100
C/C=C/[C@H]1O[C@@](OC)([C@@H](C)[C@H](O)[C@H](C)[C@H]2OC(=O)/C(OC)=C/C(C)=C/[C@@H](C)[C@@H](O)[C@@H](C)[C@@H](O)[C@H](C)C/C(C)=C/C=C/[C@@H]2OC)CC(OC2CC(O)C(OC(N)=O)C(C)O2)[C@@H]1C (stereo not given in full) | 10.4 | 8.27 | 1.17 | < 0.0124 | 0.305 | 16 | 10.1 | 23.3 | 9.71 | –
NC(N)=N/N=C/c1nc2sccn2c1[N+](=O)[O-] | > 100 | > 100 | 67.7 | 52.7 | 26.3 | 36.4 | 50.5 | > 100 | > 100 | > 100
O=c1[nH]nc(Cc2ccc(Cl)cc2)n1O | > 100 | > 100 | > 100 | > 100 | > 100 | > 100 | > 100 | > 100 | > 100 | > 100
COc1cc(/C=C2/SC(c3ccccc3)N(c3cccc([N+](=O)[O-])c3)C2=O)cc(OC)c1OC (stereo not given) | > 100 | > 100 | – | > 100 | > 100 | > 100 | > 100 | > 100 | > 100 | > 100
Cc1ccc2c(c1)OC1Nc3ccccc3C1=C2O (stereo not given) | 66 | 60.8 | > 100 | 68 | > 100 | 45.9 | 21.1 | 78.3 | 57.5 | 48
COC1/C=C/C(C)C(C(C)C(OC)C(C)CCC(=O)C(C)C(CCC(=O)O)OC)OC(=O)/C=C/C=C(\C)CC(OC)CC2=CC(=O)O[C@@H](C(C)C(OC)CC(OC)/C=C/C(C)C(OC)C1)[C@H]2O (stereo not given in full) | > 4.55 | 2.93 | > 5 | > 5 | 2.94 | > 5 | 1.72 | > 5 | 1.39 | > 4.31
